Measured values published in patent publication US20230002372A1, “AZAINDOLE CARBOXAMIDE COMPOUNDS FOR THE TREATMENT OF MYCOBACTERIAL INFECTIONS” (THE GLOBAL ALLIANCE FOR TB DRUG DEVELOPMENT, INC., priority 2019, published 2023).
Converted amounts (≈) assume the structure as drawn.

Columns and labels:
[1] = tested on: Mycobacterium abscessus; assay: MIC against Mycobacterium abscessus (Mab_ATCC, MHII broth); type: cell-based; conditions: Mycobacteroides abscessus; Mycobacterium abscessus ATCC strain; Mueller-Hinton broth (MHII)
Source text: Key for Tables: MIC: Minimum Inhibitory Concentration; MABA: microplate-based Alamar Blue assay; Mab: Mycobacterium abscessus; ATCC: American Type Culture Collection; and MHII: Mueller-Hinton broth.

[2] = tested on: M tb H37Rv; assay: MIC determination against M tb H37Rv (green fluorescent protein reporter assay; MIC-MABA); type: cell-based, Mycobacterium tuberculosis; conditions: Mycobacterium tuberculosis, H37RV, 240 h, read-out: M. TB H37Rv: MIC-MABA: MIC, M. tb H37Rv; 7H9 broth; 10 days exposure; MIC = lowest concentration inhibiting fluorescence by 90%

Row | SMILES | MIC [1] [µg/mL] | MIC [2] [µg/mL]
1 | Cc1nc(F)cc2cc(C(=O)NC3CCC(C)(C)CC3)[nH]c12 [MPL-135, N-(4,4-dimethylcyclohexyl)-5-fluoro-7-methyl-1H-pyrrolo[2,3-c]pyridine-2-carboxamide] | 8 (≈ 26.4 µM) | 1.5 (≈ 4.94 µM)
2 | Cc1cc(Cl)c2cc(C(=O)NC3CC4CCC3(C)C4(C)C)[nH]c2n1 (stereo not drawn) [MPL-195, 4-chloro-6-methyl-N-(1,7,7-trimethylnorbornan-2-yl)-1H-pyrrolo[2,3-b]pyridine-2-carboxamide] | 2 (≈ 5.78 µM) | 0.014 (≈ 0.0405 µM)
3 | COc1cc(F)nc2[nH]c(C(=O)NC3CC[Si](C)(C)CC3)cc12 [MPL-200, N-(1,1-dimethylsilinan-4-yl)-6-fluoro-4-methoxy-1H-pyrrolo[2,3-b]pyridine-2-carboxamide] | 16 (≈ 47.7 µM) | 0.072 (≈ 0.215 µM)
4 | Cc1cc(Cl)c2cc(C(=O)NC3CC[Si](C)(C)CC3)[nH]c2n1 [MPL-208, 4-chloro-N-(1,1-dimethylsilinan-4-yl)-6-methyl-1H-pyrrolo[2,3-b]pyridine-2-carboxamide] | 1 (≈ 2.98 µM) | 0.0045 (≈ 0.0134 µM)
5 | Cc1cc(F)c2c(C)c(C(=O)NC3CC[Si](C)(C)CC3)[nH]c2n1 [MPL-209, N-(1,1-dimethylsilinan-4-yl)-4-fluoro-3,6-dimethyl-1H-pyrrolo[2,3-b]pyridine-2-carboxamide] | 1 (≈ 3 µM) | 0.03 (≈ 0.09 µM)
6 | Cc1nc2[nH]c(C(=O)NC3CC[Si](C)(C)CC3)cc2c(F)c1F [MPL-229, N-(1,1-dimethylsilinan-4-yl)-4,5-difluoro-6-methyl-1H-pyrrolo[2,3-b]pyridine-2-carboxamide] | 0.12 (≈ 0.356 µM) | 0.0058 (≈ 0.0172 µM)
7 | Cc1nc2[nH]c(C(=O)NC3CC[Si](C)(C)CC3)cc2c(Cl)c1Cl [MPL-230, 4,5-dichloro-N-(1,1-dimethylsilinan-4-yl)-6-methyl-1H-pyrrolo[2,3-b]pyridine-2-carboxamide] | 16 (≈ 43.2 µM) | 0.004 (≈ 0.0108 µM)
8 | Cc1nc2[nH]c(C(=O)NC3CC[Si](C)(C)CC3)cc2c(F)c1Cl [MPL-232, 5-chloro-N-(1,1-dimethylsilinan-4-yl)-4-fluoro-6-methyl-1H-pyrrolo[2,3-b]pyridine-2-carboxamide] | 0.38 (≈ 1.07 µM) | 0.03 (≈ 0.0848 µM)
9 | Cc1nc2[nH]c(C(=O)NC3CC[Si](C)(C)CC3)cc2c(C)c1Cl [MPL-239, 5-chloro-N-(1,1-dimethylsilinan-4-yl)-4,6-dimethyl-1H-pyrrolo[2,3-b]pyridine-2-carboxamide] | 16 (≈ 45.7 µM) | 0.0078 (≈ 0.0223 µM)
10 | Cc1cc(Cl)c2cc(C(=O)NC3CCC[Si](C)(C)CC3)[nH]c2n1 (stereo not drawn) [MPL-274, 4-chloro-N-(1,1-dimethylsilepan-4-yl)-6-methyl-1H-pyrrolo[2,3-b]pyridine-2-carboxamide] | 0.75 (≈ 2.14 µM) | 0.01 (≈ 0.0286 µM)
11 | Cc1nc2[nH]c(C(=O)NC3CC[Si](C)(C)C3)cc2c(F)c1F (stereo not drawn) [MPL-295, N-(1,1-dimethylsilolan-3-yl)-4,5-difluoro-6-methyl-1H-pyrrolo[2,3-b]pyridine-2-carboxamide] | 0.28 (≈ 0.866 µM) | 0.024 (≈ 0.0742 µM)
12 | Cc1nc2[nH]c(C(=O)NC3CCC[Si](C)(C)CC3)cc2c(F)c1Cl (stereo not drawn) [MPL-316, 5-chloro-N-(1,1-dimethylsilepan-4-yl)-4-fluoro-6-methyl-1H-pyrrolo[2,3-b]pyridine-2-carboxamide] | 0.16 (≈ 0.435 µM) | 0.015 (≈ 0.0408 µM)
13 | COc1ccc2cc(C(=O)NC3CC[Si](C)(C)CC3)[nH]c2n1 [MPL-387, N-(1,1-dimethylsilinan-4-yl)-6-methoxy-1H-pyrrolo[2,3-b]pyridine-2-carboxamide] | 0.5 (≈ 1.57 µM) | 0.163 (≈ 0.513 µM)
14 | Cc1cc(Cl)c2cc(C(=O)NC3CC[Si](C)(C)C3)[nH]c2n1 (stereo not drawn) [MPL-401, 4-chloro-N-(1,1-dimethylsilolan-3-yl)-6-methyl-1H-pyrrolo[2,3-b]pyridine-2-carboxamide] | 0.75 (≈ 2.33 µM) | 0.016 (≈ 0.0497 µM)
15 | COc1ccc2cc(C(=O)NC3CCC(C)(C)CC3)[nH]c2n1 [MPL-453, N-(4,4-dimethylcyclohexyl)-6-methoxy-1H-pyrrolo[2,3-b]pyridine-2-carboxamide] | 0.5 (≈ 1.66 µM) | 0.284 (≈ 0.942 µM)
16 | C[Si]1(C)CCC(NC(=O)c2cc3ccc(OC4CC4)nc3[nH]2)CC1 [MPL-464, 6-(cyclopropoxy)-N-(1,1-dimethylsilinan-4-yl)-1H-pyrrolo[2,3-b]pyridine-2-carboxamide] | 1 (≈ 2.91 µM) | 0.124 (≈ 0.361 µM)
17 | COc1cc(F)c2cc(C(=O)NC3CC[Si](C)(C)CC3)[nH]c2n1 [MPL-468, N-(1,1-dimethylsilinan-4-yl)-4-fluoro-6-methoxy-1H-pyrrolo[2,3-b]pyridine-2-carboxamide] | 0.12 (≈ 0.358 µM) | 0.023 (≈ 0.0686 µM)
18 | Cc1nc2[nH]c(C(=O)NC3CC[Si](C)(C)CC3)cc2c(F)c1C [MPL-471, N-(1,1-dimethylsilinan-4-yl)-4-fluoro-5,6-dimethyl-1H-pyrrolo[2,3-b]pyridine-2-carboxamide] | 1 (≈ 3 µM) | 0.069 (≈ 0.207 µM)
